Results from the supplement of paper PMC10307832.

The cell lines below were run with CC(C)N(CCCNC(=O)Nc1ccc(C(C)(C)C)cc1)C[C@H]1O[C@@H](n2ccc3c(N)ncnc32)[C@H](O)[C@@H]1O + COc1cc2c(Oc3ccc(NC(=O)C4(C(=O)Nc5ccc(F)cc5)CC4)cc3F)ccnc2cc1OCCCN1CCOCC1 [Foretinib] (partner 0.25 µM) (assay: relative viability (nuclei count vs DMSO), 5 days (fraction); higher = more cells survive). Conditions: first compound 0.08 µM.
Summary of the method: (§1)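 Cells from lung cancer lines were seeded into 1536-well plates and, one day later, dosed by pin tool. Treatments were either a single drug or a fixed dose of an anchor drug with five library-drug doses (not always all listed) in √10 steps. After 5 days, nuclei were stained in a one-step fixation (final 0.05% Triton X-100, 1% formaldehyde, 1 ug/ml Hoechst) and counted on 4× images, and relative viability is the treated-to-vehicle nuclei ratio, as the median of duplicate plates.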

In order of rising relative viability:
1. EKVX  0.787
2. SW 1573  0.81
3. NCI-H1944  0.811
4. NCI-H1975  0.853
5. LC-2-ad  0.895
6. SK-LU-1  0.904

Same assay, conditions: first compound 0.253 µM

In order of falling relative viability:
1. NCI-H2085  1.04
2. HCC-15  1.04
3. SK-LU-1  0.919
4. NCI-H1975  0.916
5. LC-2-ad  0.9
6. NCI-H1944  0.88
7. RERF-LC-KJ  0.814
8. EKVX  0.793
9. SW 1573  0.707

Same assay, conditions: first compound 0.8 µM

In order of rising relative viability:
1. NCI-H1793  0.677
2. EKVX  0.804
3. SW 1573  0.825
4. NCI-H1975  0.871
5. RERF-LC-KJ  0.888
6. LC-2-ad  0.894
7. SK-LU-1  0.898
8. NCI-H1944  0.958
9. NCI-H2085  1.1
10. HCC-15  1.11

Same assay, conditions: first compound 2.53 µM

In order of falling relative viability:
1. HCC-15  0.998
2. NCI-H2085  0.928
3. SW 1573  0.927
4. NCI-H1944  0.919
5. SK-LU-1  0.911
6. LC-2-ad  0.899
7. EKVX  0.801
8. RERF-LC-KJ  0.794
9. NCI-H1975  0.707
10. NCI-H1793  0.606

Same assay, conditions: first compound 8 µM

In order of falling relative viability:
1. SW 1573  1.08
2. NCI-H2085  1.02
3. HCC-15  0.981
4. LC-2-ad  0.9
5. NCI-H1944  0.882
6. RERF-LC-KJ  0.79
7. NCI-H1975  0.765
8. SK-LU-1  0.754
9. EKVX  0.665
10. NCI-H1793  0.621

What follows are cell lines tested with CC(C)N(CCCNC(=O)Nc1ccc(C(C)(C)C)cc1)C[C@H]1O[C@@H](n2ccc3c(N)ncnc32)[C@H](O)[C@@H]1O + Nc1nc2[nH]cc(CCc3ccc(C(=O)N[C@@H](CCC(=O)O)C(=O)O)cc3)c2c(=O)[nH]1 [Pemetrexed] (partner 0.2 µM) in the same assay as above. Conditions: first compound 0.08 µM.
Summary of the method: as §1

In order of rising relative viability:
1. HCC-15  0.221
2. LC-2-ad  0.282
3. NCI-H1975  0.303
4. EKVX  0.44
5. RERF-LC-KJ  0.502
6. NCI-H1944  0.601
7. NCI-H1793  0.77
8. NCI-H2085  0.877
9. SW 1573  0.88
10. SK-LU-1  1

Same assay, conditions: first compound 0.253 µM

In order of rising relative viability:
1. HCC-15  0.225
2. LC-2-ad  0.271
3. NCI-H1975  0.296
4. EKVX  0.325
5. RERF-LC-KJ  0.478
6. NCI-H1944  0.593
7. NCI-H2085  0.61
8. SW 1573  0.804
9. SK-LU-1  1.01

Same assay, conditions: first compound 0.8 µM

In order of rising relative viability:
1. HCC-15  0.229
2. LC-2-ad  0.263
3. NCI-H1975  0.292
4. EKVX  0.413
5. RERF-LC-KJ  0.517
6. NCI-H1944  0.552
7. SW 1573  0.829
8. NCI-H1793  0.831
9. NCI-H2085  0.899
10. SK-LU-1  1.04

Same assay, conditions: first compound 2.53 µM

In order of falling relative viability:
1. NCI-H2085  1.05
2. SK-LU-1  0.983
3. SW 1573  0.832
4. NCI-H1793  0.801
5. NCI-H1944  0.695
6. RERF-LC-KJ  0.48
7. EKVX  0.464
8. NCI-H1975  0.3
9. LC-2-ad  0.282
10. HCC-15  0.213

Same assay, conditions: first compound 8 µM

In order of rising relative viability:
1. HCC-15  0.219
2. LC-2-ad  0.276
3. NCI-H1975  0.286
4. EKVX  0.404
5. RERF-LC-KJ  0.466
6. NCI-H1944  0.595
7. NCI-H1793  0.767
8. SW 1573  0.778
9. SK-LU-1  0.915
10. NCI-H2085  0.975
